In patent US6696437B1, “Heterocyclically substituted benzimidazoles, the production and application thereof” (Abbott GmbH & Co. KG, priority 1999, dated 2004):

How the values were obtained:
[1] = S. Cuzzocrea et al., Br. J. Pharmacol. 1997; cited from earlier work
[2] = Determination of the solubility in water; type: physicochemical; conditions: pH 5-6 adjusted with sodium acetate solution
Description: Determination of the Solubility in Water
A compound to be measured is dissolved directly in a fixed volume of water, and the resulting solution is adjusted to pH 5-6 with a sodium acetate solution so that the active ingredient concentration to be tested is reached. If the measured substance is not in the form of a water-soluble salt, it was dissolved in the minimum amount of dimethyl sulfoxide and then diluted with water (final dimethyl sulfoxide concentration≦1%), after which the pH was again adjusted.

[3] = test system: poly(ADP-ribose) polymerase or PARP (EC 2.4.2.30); assay: Inhibition of the enzyme poly(ADP-ribose) polymerase (ELISA / HTRF assay); type: biochemical, human or bovine
Description: The inhibitory effect of the substituted benzimidazoles I and II can be determined using an enzyme assay disclosed in the literature, with a Ki being determined as gauge of the effect. The benzimidazoles I and II were measured in this way for an inhibitory effect on the enzyme poly(ADP-ribose) polymerase or PARP (EC 2.4.2.30).
Inhibition of the Enzyme poly(ADP-ribose) Polymerase or PARP (EC 2.4.2.30)
A 96-well microtiter plate (FALCON Micro-Test IIIä Flexible Assay Plate, #3912) was coated with histones (SIGMA, H-7755). Histones were for this purpose dissolved in carbonate buffer (0.05 M […]; pH 9.4) in a concentration of 50 μg/ml. The individual wells of the microtiter plate were each incubated with 150 μl of this histone solution at room temperature for at least 2 hours or at 4° C. overnight. The wells are then blocked by adding 150 μl of a 1% strength BSA solution (SIGMA, A-7888) in carbonate buffer at room temperature for 2 hours. This is followed by three washing steps with washing buffer (0.05% […] in 1×PBS; PBS (phosphate buffered saline; Gibco, Order No. 10010): 0.21 g/l KH2PO4, 9 g/l NaCl, 0.726 g/l Na2HPO4.7H2O, pH 7.4). Washing steps were all carried out in a microtiter plate washer (“Columbus” microtiter plate washer, SLT-Labinstruments, Austria).
Required for the enzyme reaction were an enzyme reaction solution and a substrate solution, in each case as a premix. The absolute amount of these solutions depended on the intended number of assay wells.
Composition of the enzyme reaction solution per well:
4 μl of PARP reaction buffer (1 M tris-HCl pH 8.0, 100 mM MgCl2, 10 mM DTT)
20 ng of PARP (human or bovine)
4 μl of activated DNA (1 mg/ml; SIGMA, D-4522)
Composition of the substrate solution per well:
5 μl of PARP reaction buffer (10×)
0.8 μl of NAD solution (10 mM, SIGMA N-1511)
Inhibitors were dissolved in 1× PARP reaction buffer. DMSO, which was occasionally used to dissolve inhibitors in higher concentrations, was no problem up to a final concentration of 2%. For the enzyme reaction, 40μl of the enzyme reaction solution were introduced into each well and incubated with 10 μl of inhibitor solution for 10 minutes. The enzyme reaction was then started by adding 50 μl of substrate solution per well. The reaction was carried out at room temperature for 30 minutes and then stopped by washing three times with washing buffer.
The primary antibodies employed were specific anti-poly(ADP-ribose) antibodies in a dilution of 1:5000. Dilution took place in antibody buffer (1% BSA in PBS; 0.05% Tween20). Incubation time for the primary antibody was one hour at room temperature. […] This was followed by immediate measurement in an ELISA plate reader (EAR340AT “Easy Reader”, SLT-Labinstruments, Austria) (450 nm versus 620 nm).
Various concentrations were used to construct a dose-effect plot to determine the Ki of an inhibitor. […] Arithmetic means are determined using Microsoft© Excel. The IC50 is determined using the Microcal© Origin Software (Vers. 5.0) (“Sigmoidal Fit”). Conversion of the IC50 values calculated in this way into Ki values took place by using “calibration inhibitors”. The “calibration inhibitors” were also measured in each analysis. […]

[4] = biological target: PARP II (Homo sapiens, UniProt Q9UGN5); assay: Inhibition of the enzyme PARP II; type: biochemical; conditions: PARP versus PARP II
PARP II, sequence (Q9UGN5 whole entry): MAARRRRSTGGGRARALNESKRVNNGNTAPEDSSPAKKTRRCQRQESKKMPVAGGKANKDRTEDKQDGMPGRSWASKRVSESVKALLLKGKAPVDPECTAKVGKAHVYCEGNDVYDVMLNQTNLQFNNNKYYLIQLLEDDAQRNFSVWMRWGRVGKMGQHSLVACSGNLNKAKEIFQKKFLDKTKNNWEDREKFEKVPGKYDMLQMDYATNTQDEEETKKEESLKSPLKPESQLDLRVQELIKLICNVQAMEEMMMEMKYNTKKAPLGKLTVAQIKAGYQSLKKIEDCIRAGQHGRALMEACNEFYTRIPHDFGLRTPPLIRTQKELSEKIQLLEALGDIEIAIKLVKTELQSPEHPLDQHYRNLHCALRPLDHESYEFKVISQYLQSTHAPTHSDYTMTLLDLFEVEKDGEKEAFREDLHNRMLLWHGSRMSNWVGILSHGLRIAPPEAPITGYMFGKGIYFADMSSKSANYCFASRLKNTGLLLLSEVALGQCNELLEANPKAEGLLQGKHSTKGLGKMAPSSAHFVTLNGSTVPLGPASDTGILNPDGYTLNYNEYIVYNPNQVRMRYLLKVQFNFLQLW

| SMILES | ranking as PARP inhibitor [3] | also measured |
| --- | --- | --- |
| NC(=O)c1cccc(N)c1 [3-aminobenzamide] |  | effect in a model of circulatory failure [1]: protective effects |
| NC(=O)c1cccc2[nH]c(-c3ccncc3)nc12 [Example 1, 2-Pyridin-4-ylbenzimidazole-4-carboxamide] |  | solubility in water [2]: > 0.5% |
| CC(C)(C)N1CCN(c2ccc(-c3nc4cccc(C(N)=O)c4[nH]3)cn2)CC1 [Example 36, 2-(2-(4-tert-Butylpiperazin-1-yl)pyridin-5-yl)benzimidazole-4-carboxamide] | best PARP inhibitors |  |
| COc1ccc(-c2nc3cccc(C(N)=O)c3[nH]2)cc1 [NU 1076, reference compound] |  | solubility in water [2]: < 0.01% |
| CCN(CC)CCN(C)c1cc(-c2nc3c(C(N)=O)cccc3[nH]2)ccn1.CCN(CC)CCN(C)c1cc(-c2nc3c(C(N)=O)cccc3[nH]2)ccn1.O=C(O)/C=C/C(=O)O [Example 25, 2-(2-((2-(N,N-Diethylamino)eth-1-yl)methylamino)pyridin-4-yl)benzimidazole-4-carboxamide×½ Fumaric Acid] | best PARP inhibitors |  |
| NC(=O)c1cccc2nc(-c3ccccc3)[nH]c12 [NU 1070, 2-phenylbenzimidazole-4-carboxamide] |  | Ki values for PARP compared with PARP II (selectivity) [4]: same order of magnitude |
| CCCCN1CCN(c2ccc(-c3nc4cccc(C(N)=O)c4[nH]3)cn2)CC1.Cl [Example 37, 2-(2-(4-n-Butylpiperazin-1-yl)pyridin-5-yl)benzimidazole-4-carboxamide×HCl] | best PARP inhibitors |  |
| CCCN1CCN(c2ccc(-c3nc4cccc(C(N)=O)c4[nH]3)cn2)CC1 [Example 16, 2-(6-(4-Propylpiperazin-1-yl)pyridin-3-yl)benzimidazole-4-carboxamide] | best PARP inhibitors |  |
| CCN(CC)CCN(C)c1ccc(-c2nc3c(C(N)=O)cccc3[nH]2)cn1.Cl.Cl [Example 15, 2-(6-((2-(N,N-Diethylamino)eth-1-yl)methylamino)pyridin-3-yl)benzimidazole-4-carboxamide×2 HCl] | best PARP inhibitors |  |
